Measurements as given in PubChem BioAssay (NCI).
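Cultured in 96-well plates, cells were exposed to test compound for 48 hours across five concentrations. The concentration for full growth arrest is given as TGI.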

How the values were obtained:
Experiment in all cases: growth of human tumour cells (NCI), 48 h
[1] = test system: 786-0 renal
[2] = test system: A498 renal
[3] = test system: A549 NSCLC
[4] = test system: ACHN renal
[5] = test system: CAKI-1 renal
[6] = test system: CCRF-CEM leukemia
[7] = test system: COLO 205 colon
[8] = test system: DLD-1 colon
[9] = test system: DMS 114 small cell lung
[10] = test system: DMS 273 small cell lung
[11] = test system: EKVX NSCLC
[12] = test system: HCT-116 colon
[13] = test system: HCT-15 colon
[14] = test system: HL-60(TB) leukemia
[15] = test system: HOP-18 NSCLC
[16] = test system: HOP-62 NSCLC
[17] = test system: HOP-92 NSCLC
[18] = test system: HT29 colon
[19] = test system: IGROV1 ovarian
[20] = test system: K-562 leukemia
[21] = test system: KM20L2 colon
[22] = test system: LXFL 529 NSCLC
[23] = test system: M14 melanoma
[24] = test system: M19-MEL melanoma
[25] = test system: MOLT-4 leukemia
[26] = test system: NCI-H23 lung
[27] = test system: NCI-H460 lung
[28] = test system: NCI-H522 lung
[29] = test system: OVCAR-3 ovarian
[30] = test system: OVCAR-4 ovarian
[31] = test system: OVCAR-5 ovarian
[32] = test system: OVCAR-8 ovarian
[33] = test system: RPMI-8226 leukemia
[34] = test system: RXF 393 renal
[35] = test system: SF-268 CNS
[36] = test system: SF-295 CNS
[37] = test system: SF-539 CNS
[38] = test system: SK-MEL-2 melanoma
[39] = test system: SK-MEL-28 melanoma
[40] = test system: SK-MEL-5 melanoma
[41] = test system: SK-OV-3 ovarian
[42] = test system: SN12C renal
[43] = test system: SNB-19 CNS
[44] = test system: SNB-75 CNS
[45] = test system: SNB-78 CNS
[46] = test system: SW-620 colon
[47] = test system: TK-10 renal
[48] = test system: U251 CNS
[49] = test system: UACC-257 melanoma
[50] = test system: UACC-62 melanoma
[51] = test system: UO-31 renal
[52] = test system: XF 498 CNS
[53] = test system: HCC-2998 colon
[54] = test system: KM12 colon
[55] = test system: LOX IMVI melanoma
[56] = test system: MALME-3M melanoma
[57] = test system: NCI-H226 lung

SMILES: Clc1cccc(C2SCc3nc4ccccc4n32)c1Cl (stereo not given)
- TGI [1]: 32.8 µM
- TGI [2]: 29.2 µM
- TGI [3]: 41.9 µM
- TGI [4]: 35.3 µM
- TGI [5]: 34.1 µM
- TGI [6]: 48.2 µM
- TGI [7]: 36 µM
- TGI [8]: 32.4 µM
- TGI [9]: 36.4 µM
- TGI [10]: 32.1 µM
- TGI [11]: 30.8 µM
- TGI [12]: 33.5 µM
- TGI [13]: 36.5 µM
- TGI [14]: 20.3 µM
- TGI [15]: 33.1 µM
- TGI [16]: 32 µM
- TGI [17]: 30.1 µM
- TGI [18]: 27.5 µM
- TGI [19]: 33.6 µM
- TGI [20]: 45 µM
- TGI [21]: 34.7 µM
- TGI [22]: 30.3 µM
- TGI [23]: 30.5 µM
- TGI [24]: 29.6 µM
- TGI [25]: 41.9 µM
- TGI [26]: 32.1 µM
- TGI [27]: 34.6 µM
- TGI [28]: 32.1 µM
- TGI [29]: 33.7 µM
- TGI [30]: 27 µM
- TGI [31]: 27.1 µM
- TGI [32]: 37 µM
- TGI [33]: 90.6 µM
- TGI [34]: 29.6 µM
- TGI [35]: 36.5 µM
- TGI [36]: 30.4 µM
- TGI [37]: 32.5 µM
- TGI [38]: 32.2 µM
- TGI [39]: 35.9 µM
- TGI [40]: 27.3 µM
- TGI [41]: 34.9 µM
- TGI [42]: 32.5 µM
- TGI [43]: 33.1 µM
- TGI [44]: 18.6 µM
- TGI [45]: 55.6 µM
- TGI [46]: 30.8 µM
- TGI [47]: 29.2 µM
- TGI [48]: 31.7 µM
- TGI [49]: 28.5 µM
- TGI [50]: 34.3 µM
- TGI [51]: 25.8 µM
- TGI [52]: 29.9 µM

SMILES: CC12CC(=O)NN=C1c1ccccc1C2 (stereo not given)
- TGI [1]: > 100 µM
- TGI [2]: > 100 µM
- TGI [3]: > 100 µM
- TGI [4]: > 100 µM
- TGI [5]: > 100 µM
- TGI [6]: > 100 µM
- TGI [7]: > 100 µM
- TGI [8]: > 100 µM
- TGI [9]: > 100 µM
- TGI [10]: > 100 µM
- TGI [11]: > 100 µM
- TGI [53]: > 100 µM
- TGI [12]: > 100 µM
- TGI [13]: > 100 µM
- TGI [14]: > 100 µM
- TGI [16]: > 100 µM
- TGI [18]: > 100 µM
- TGI [19]: > 100 µM
- TGI [20]: > 100 µM
- TGI [54]: > 100 µM
- TGI [21]: > 100 µM
- TGI [55]: > 100 µM
- TGI [23]: > 100 µM
- TGI [24]: > 100 µM
- TGI [56]: > 100 µM
- TGI [25]: > 100 µM
- TGI [57]: > 100 µM
- TGI [26]: > 100 µM
- TGI [27]: > 100 µM
- TGI [28]: > 100 µM
- TGI [29]: > 100 µM
- TGI [31]: > 100 µM
- TGI [32]: > 100 µM
- TGI [33]: > 100 µM
- TGI [34]: > 100 µM
- TGI [35]: > 100 µM
- TGI [36]: > 100 µM
- TGI [37]: > 100 µM
- TGI [38]: > 100 µM
- TGI [39]: > 100 µM
- TGI [40]: > 100 µM
- TGI [41]: > 100 µM
- TGI [42]: > 100 µM
- TGI [43]: > 100 µM
- TGI [44]: > 100 µM
- TGI [45]: > 100 µM
- TGI [46]: > 100 µM
- TGI [47]: > 100 µM
- TGI [48]: > 100 µM
- TGI [49]: > 100 µM
- TGI [50]: > 100 µM
- TGI [51]: > 100 µM
- TGI [52]: > 100 µM
